In ChEMBL document CHEMBL4196120, “Inhibition of Connexin Hemichannels by New Amphiphilic Aminoglycosides without Antibiotic Activity” (ACS Med Chem Lett, 2018):
In brackets after ≈: the same amount, converted by molar mass. Activity calls are given as the source filed them. The rule behind the calls is not given here.

How the values were obtained:
[1] = target: Gap junction beta-2 protein (Homo sapiens) (UniProt P29033); test: Inhibition of recombinant human Cx26 expressed in Escherichia coli LB2003 assessed as reduction in cell growth measured after 18 hrs
HeLa [2] = test: Cytotoxicity against human HeLa cells assessed as reduction in cell viability up to 100 ug/ml after 24 hrs by MTT assay; format: cell-based
HeLa [3] = test: Cytotoxicity against human HeLa cells assessed as reduction in cell viability at 100 ug/ml after 24 hrs by MTT assay relative to control; format: cell-based
Cx26 = test: Ratio of compound effect for cytotoxicity against human HeLa cells to IC50 for recombinant human Cx26 expressed in Escherichia coli LB2003; format: toxicity
[4] = target: Gap junction beta-2 protein (Homo sapiens) (UniProt P29033); test: Inhibition of recombinant human Cx26 expressed in Escherichia coli LB2003 assessed as reduction in cell growth at 100 uM measured after 18 hrs
Staphylococcus aureus = test: Toxicity against Staphylococcus aureus ATCC 25923 measured after 18 to 24 hrs; format: organism-based; settings: in vivo

Row | Compound | Imax [1] [%] | Activity (HeLa [2]) | Activity (HeLa [3]) [%] | selectivity ratio (Cx26) | inhibition [4] | MIC (Staphylococcus aureus) [µg/mL]
1 | CCCCCCO[C@H]1[C@H](N)[C@@H](O)[C@H](O[C@@H]2[C@@H](O)[C@H](O[C@H]3O[C@H](CN)[C@@H](O)[C@H](O)[C@H]3O)[C@@H](N)C[C@H]2N)O[C@@H]1CO | 99 | Non-Toxic | – | – | – | –
2 | NC[C@H]1O[C@H](O[C@H]2[C@H](O)[C@@H](O[C@@H]3O[C@H](COCc4ccc(F)cc4)[C@@H](OCc4ccc(F)cc4)[C@H](N)[C@H]3O)[C@H](N)C[C@@H]2N)[C@H](O)[C@@H](O)[C@@H]1O | 94 | – | 40 to 60 | ≤ 20 | – | –
3 | CCCCOC[C@H]1O[C@@H](O[C@@H]2[C@@H](O)[C@H](O[C@H]3O[C@H](CN)[C@@H](O)[C@H](O)[C@H]3O)[C@@H](N)C[C@H]2N)[C@H](O)[C@@H](N)[C@@H]1OCCCC | 99 | Non-Toxic | – | – | – | –
4 | CCCCCCCCOC[C@H]1O[C@@H](O[C@@H]2[C@@H](O)[C@H](O[C@H]3O[C@H](CN)[C@@H](O)[C@H](O)[C@H]3O)[C@@H](N)C[C@H]2N)[C@H](O)[C@@H](N)[C@@H]1OCCCCCCCC | 99 | Non-Toxic | – | – | – | –
5 | CCCCCCCCCOC[C@H]1O[C@@H](O[C@@H]2[C@@H](O)[C@H](O[C@H]3O[C@H](CN)[C@@H](O)[C@H](O)[C@H]3O)[C@@H](N)C[C@H]2N)[C@H](O)[C@@H](N)[C@@H]1OCCCCCCCCC | 99 | Non-Toxic | – | – | – | –
6 | CO[C@@H]1[C@@H](O[C@@H]2O[C@H](COCc3ccccc3)[C@@H](OCc3ccccc3)[C@H](N)[C@H]2OC)[C@H](N)C[C@H](N)[C@H]1O[C@H]1O[C@H](CN)[C@@H](OC)[C@H](OC)[C@H]1OC | 99 | Non-Toxic | – | – | – | –
7 | Cc1ccc(COC[C@H]2O[C@@H](O[C@@H]3[C@@H](O)[C@H](O[C@H]4O[C@H](CN)[C@@H](O)[C@H](O)[C@H]4O)[C@@H](N)C[C@H]3N)[C@H](O)[C@@H](N)[C@@H]2OCc2ccc(C)cc2)cc1 | 94 | Non-Toxic | – | – | – | –
8 | NC[C@H]1O[C@H](O[C@H]2[C@H](O)[C@@H](O[C@@H]3O[C@H](COCc4ccc5ccccc5c4)[C@@H](OCc4ccc5ccccc5c4)[C@H](N)[C@H]3O)[C@H](N)C[C@@H]2N)[C@H](O)[C@@H](O)[C@@H]1O | 94 | – | 40 to 60 | ≤ 20 | – | –
9 | NC[C@H]1O[C@H](O[C@H]2[C@H](O)[C@@H](O[C@@H]3O[C@H](COCc4ccccc4)[C@@H](OCc4ccccc4)[C@H](N)[C@H]3O)[C@H](N)C[C@@H]2N)[C@H](O)[C@@H](O)[C@@H]1O | 99 | Non-Toxic | – | – | – | –
10 | COc1ccc(COC[C@H]2O[C@@H](O[C@@H]3[C@@H](O)[C@H](O[C@H]4O[C@H](CN)[C@@H](O)[C@H](O)[C@H]4O)[C@@H](N)C[C@H]3N)[C@H](O)[C@@H](N)[C@@H]2OCc2ccc(OC)cc2)cc1 | 94 | Non-Toxic | – | – | – | –
11 | NC[C@H]1O[C@H](O[C@H]2[C@H](O)[C@@H](O[C@@H]3O[C@H](COCc4ccc(Cl)cc4)[C@@H](OCc4ccc(Cl)cc4)[C@H](N)[C@H]3O)[C@H](N)C[C@@H]2N)[C@H](O)[C@@H](O)[C@@H]1O | 94 | Non-Toxic | – | – | – | –
12 | CO[C@@H]1[C@@H](O[C@@H]2O[C@H](CO)[C@@H](O)[C@H](N)[C@H]2OC)[C@H](N)C[C@H](N)[C@H]1O[C@H]1O[C@H](CN)[C@@H](OC)[C@H](OC)[C@H]1OC | – | Non-Toxic | – | – | inactive | –
13 | NC[C@H]1O[C@H](O[C@H]2[C@H](O)[C@@H](O[C@@H]3O[C@H](COCc4cccc(-c5ccccc5)c4)[C@@H](OCc4cccc(-c5ccccc5)c4)[C@H](N)[C@H]3O)[C@H](N)C[C@@H]2N)[C@H](O)[C@@H](O)[C@@H]1O | 94 | – | 40 to 60 | ≤ 20 | – | 16 (≈ 19.6 µM)
14 | NC[C@H]1O[C@H](O[C@H]2[C@H](O)[C@@H](O[C@@H]3O[C@H](COCc4cccc5ccccc45)[C@@H](OCc4cccc5ccccc45)[C@H](N)[C@H]3O)[C@H](N)C[C@@H]2N)[C@H](O)[C@@H](O)[C@@H]1O | 94 | Non-Toxic | – | – | – | 64 (≈ 83.7 µM)
15 | CCCCCCOC[C@H]1O[C@@H](O[C@@H]2[C@@H](O)[C@H](O[C@H]3O[C@H](CN)[C@@H](O)[C@H](O)[C@H]3O)[C@@H](N)C[C@H]2N)[C@H](O)[C@@H](N)[C@@H]1OCCCCCC | 99 | Non-Toxic | – | – | – | –
